This is an account of results in patent US5807819A, “Peptides useful for altering bone resorption” (priority 1995, dated 1998).

The subject of experiment [1] is αV β3 integrin receptor. The following applies: rabbit, in vivo; cited from earlier work.
Experiment [2] can be described thus: Parathyroid hormone-induced hypercalcemia in mice. The class given is in vivo, Swiss-Webster mice. The following applies: parathyroidectomized mice, 4 hr i.v. peptide infusion, FIG. 9. The source says:
Parathyroid hormone (PTH) activates osteoclasts, which are involved in bone resorption. Associated with the increased osteoclast activity is an increase in serum calcium. The PTH-induced hypercalcemia assay measures the level of serum calcium, which is an indication of bone resorption in a subject (Fischer et al., Endocrinology 132:1411-1413 (1993), which is incorporated herein by reference).
Swiss-Webster mice, which had been parathyroidectomized two weeks prior to beginning the assay, were obtained from Taconic Lab Animals and Services (Germantown N.Y.). Femoral vein catheters (PE-50 fused with PE10 polyethylene tubing; Becton Dickinson; Parsippany, N.J.) were installed in the mice, flushed and locked with heparinized saline (1:10), sutured to adjacent muscle and internalized within the inguinal space of the incision before closing the incision with wound clips. […]
The experiment was initiated by feeding the mice a calcium-deficient diet overnight, then injecting the mice the following morning with a bolus of 0.2 mg PTH/kg (hPTH 1-34; Bachem; Torrance Calif.), intravenously. […] Various doses of a peptide or vehicle were infused into an animal for 4 hr, then ionized serum calcium again was measured. […] Serum calcium measurements were expressed as the difference between the value 30 min before the PTH pulse and 4 hr after peptide infusion was started. […]

For another experiment, the system named is chick osteoclasts. The experiment can be described thus: Chick cell detachment assay (osteoclasts vs total cells). The class given is cell-based. The following applies: FIG. 5, serum-coated plates.
The next experiment relates to rat osteoclasts. The experiment can be described thus: Rat osteoclast attachment assay compared with MG63/NRK cell attachment. In kind it is cell-based. The following applies: FIGS. 7 and 8, FCS substrate. How it is done:
To determine the effect of a peptide on the attachment of rat osteoclasts in vitro, 100 μl aliquots of the rat pup bone cell suspension described in Example II.B.2., above, were added in triplicate to 96 well "MAXISORP" plates coated with specific substrates or with FCS. Substrate coated plates were used to determine the ability of peptides to inhibit attachment or induce detachment of an osteoclast from a ligand such as vitronectin, fibronectin, osteopontin or collagen I (Collaborative Research), which are ligands present in bone. Substrates were added to 96 well plates (50 μl of a 5-10 μg/ml solution in sodium carbonate, pH 9.5) and incubated for 2 hr at 37° C. For FCS control wells, 100 μl 10% FCS was added. Wells were aspirated, then washed 2× with PBS and blocked with 1% bovine serum albumin in PBS for 2 hr at 37° C. Wells were aspirated and washed again 2× with PBS. Cells were seeded in duplicate at 4×10^4 cells/well. […]
Following incubation, the medium and nonadherent cells were removed by aspiration from each well. […] Adherent osteoclasts were counted by light microscopy. […]
MG63 and NRK cell lines were purchased from ATTC (Rockville Md.). […] Following staining, the stain was extracted with 20% acetic acid and the OD562 of the extracted stain was determined. […]
Selectivity of a peptide can be determined by comparing the results of FIGS. 7 and 8 (see, also FIG. 2).

Experiment [3] concerns αV β3 integrin receptor. Nature of the experiment: Series of in vitro assays of Example II for potency and selectivity (FIG. 2). The following applies: for activity (FIG. 2): minimal-element peptides; for receptor selectivity classification / potency classification: summary of assays. From the text:
Such peptides can include, for example, peptides within the pharmacophore groups exemplified herein or peptides within other pharmacophore groups. […] The selectivity of a peptide for an integrin receptor involved in osteoclast binding to bone can be determined, for example, using the integrin receptor assays and cell attachment and detachment assays described herein.
Comparison of the IC50 values generated using the JY cell assay and the αV β3 ELISA, which measure binding of the αV β3 receptor involved in osteoclast binding to bone, with the αV β5 and α5 β1 receptor-specific ELISAs, which represent receptors that likely are not involved in osteoclast attachment, provides insight into the receptor selectivity of the peptides.

Experiment [4] has as its system platelet αIIb β3 integrin receptor. Nature of the experiment: Platelet aggregation assay. In kind it is cell-based. The following applies: ADP-induced, platelet-rich plasma from heparinized blood; read-out: IC50 inhibiting platelet aggregation. On the procedure:
This example provides a method for performing a platelet aggregation assay, which is a measure of peptide binding to the platelet αIIb β3 integrin receptor.
Platelet-rich plasma (PRP) was prepared fresh from heparinized whole blood. 0.6 ml PRP was placed in a 1.5 ml microcentrifuge tube and centrifuged for 4 min at 14,000×g. Following centrifugation, 0.5 ml supernatant (platelet poor plasma; PPP) was transferred to a 1 ml silicon coated aggregometer tube (Chrono-Log Corp.; Havertown Pa.) and placed in the PPP slot of a Chrono-Log Model 400VS aggregometer (see Tschopp et al., Thromb. Haem. 72:119-124 (1994), which is incorporated herein by reference).
Platelet concentration of the PRP sample was determined using a cell counter and the sample was diluted with homologous PPP to obtain 300,000 platelets/μl. 0.5 ml of the diluted PRP was placed in an aggregometer tube with a stir bar and incubated for 5 min at 37° C. without stirring. The tube was transferred to the PRP slot in the aggregometer and the sample was stirred at 1200 rpm for 5-10 min at 37° C. […]
Platelet aggregation was initiated by adding adenosine diphosphate (ADP) to a concentration of 10 μM. Platelet aggregation was measured in 2 mm units from baseline (before ADP addition) to response at two min from the time of ADP addition or maximal response (if before 2 min), whichever is larger. […]

Where a SMILES comes first, the peptide text is derived from it. Bridges are numbered along the chain shown (N, C = ends). [ ]: non-standard residue; d: D form. Tic = O=C(O)[C@@H]1Cc2ccccc2CN1; Pen = CC(C)(S)[C@H](N)C(=O)O; Mpa = O=C(O)CCS

Experimental for chick osteoclasts: Peptides were evaluated for their ability to detach osteoclasts from a matrix consisting of serum-coated microtiter plates.
Briefly, chick long bones (femur and tibia) were dissected free of soft tissue and minced in prewarmed minimum essential medium (MEM, pH 7.2; Irvine Scientific; Irvine, Calif.) with Earl's salts, supplemented with 10% heat-inactivated fetal calf serum (FCS) and 200 mM glutamine and containing 100 μg/ml streptomycin and 100 IU/ml penicillin. Cells were removed from bone fragments by vigorous shaking in a capped centrifuge tube. Large particulate material was allowed to settle prior to removal of the cell suspension. After repeated agitation of the cells with a large transfer pipette, 100 μl aliquots of cells were added in triplicate to Corning 96 well microtiter plates that had been preincubated for 1 hr with 100 μl of MEM/FCS media.
The cells were incubated for 90 min at 37° C. in an atmosphere containing 10% CO2. Following incubation, the cell layers were carefully washed 2× with 200 μl sterile PBS, then 100 μl of fresh MEM/FCS was added. Peptides were diluted in the same medium and added to each well. The cells were incubated overnight as described above. […] 5 min using 0.1% crystal violet and multinucleated osteoclasts were counted by light microscopy. […]

With G(Pen)GRGDSPCA, the neointimal hyperplasia result with αV β3 integrin receptor [1] is “can inhibit neointimal hyperplasia”.

`CC(C)[C@@H]1NC(=O)[C@H](CC(=O)O)NC(=O)[C@H](CC(=O)O)NC(=O)CNC(=O)[C@H](CCCNC(=N)N)NC(=O)CCSSC[C@@H](C(N)=O)NC1=O` [compound 191] ([Mpa]RGDDVC-NH2; disulfide 1-7): the “PTH-induced rise in serum ionized calcium” value in experiment [2] is reported as “decreased the PTH-induced rise in serum ionized calcium in a dose responsive manner”.

For `CC(C)[C@@H]1NC(=O)[C@H](CC(=O)O)NC(=O)[C@H](CC(=O)O)NC(=O)CNC(=O)[C@H](CCCNC(=N)N)NC(=O)CC[C@@H](C(N)=O)NC1=O` [peptide 386, RGDDVE-NH2] (RGDDVE-NH2; lactam N-6), the “selective detachment of osteoclasts compared to other cell types” value in the experiment with chick osteoclasts is “caused selective detachment of osteoclasts as compared to other cell types”. Further, the “PTH-induced rise in serum ionized calcium” value in experiment [2] was “relatively low level of serum calcium”. In addition, the “selectivity: osteoclast attachment versus MG63 or NRK attachment” value in the experiment on rat osteoclasts is on record as “highly active on osteoclast attachment but were less active on MG63 or NRK attachment”. Moreover, in the experiment with αV β3 integrin receptor [3], the “activity (FIG. 2)” value is “demonstrate activity” and the receptor selectivity classification result is on record as “particularly receptor selective”.

`COc1ccc(C[C@@H]2NC(=O)[C@H](CC(=O)O)NC(=O)CNC(=O)[C@H](CCCNC(=N)N)NC(=O)CC[C@@H](C(N)=O)NC(=O)[C@H](CCCNC(=N)N)NC2=O)cc1` [compound 940, RGD(YOMe)RE-NH2]: in experiment [4], the IC50 (commonly the midpoint of a concentration-inhibition curve) worked out at 820 nM.

With `CC(=O)N[C@H]1CSSC(C)(C)[C@@H](C(N)=O)NC(=O)[C@@H]2CCCN2C(=O)[C@H](CC(N)=O)NC(=O)[C@H](CC(=O)O)NC(=O)CNC(=O)[C@H](CCCNC(=N)N)NC1=O` [compound 228] (Ac-CRGDNP[Pen]-NH2; disulfide 1-7), the receptor selectivity classification entry in the experiment on αV β3 integrin receptor [3] is recorded as “particularly receptor selective”.

In the case of `CC(=O)N[C@@H]1C(=O)N[C@@H](Cc2ccccc2)C(=O)N[C@@H](C)C(=O)N[C@@H](CCCNC(=N)N)C(=O)NCC(=O)N[C@@H](CC(=O)O)C(=O)N[C@@H](CC(N)=O)C(=O)N2CCC[C@H]2C(=O)N[C@H](C(N)=O)CSSC1(C)C` [peptide 214] (Ac-[Pen]FARGDNPC-NH2; disulfide 1-9), the potency classification result with αV β3 integrin receptor [3] is “particularly potent”.

Consider `CC(=O)N[C@H]1CSSC[C@@H](C(N)=O)NC(=O)[C@@H]2Cc3ccccc3CN2C(=O)[C@H](CO)NC(=O)[C@H](CC(=O)O)NC(=O)CNC(=O)[C@H](CCCNC(=N)N)NC1=O` [compound 812, Ac-CRGDS(Tic)C-NH2] (Ac-CRGDS[Tic]C-NH2; disulfide 1-7), for which, in the experiment with αV β3 integrin receptor [3], the “activity (FIG. 2)” value is given as “demonstrate activity” and the potency classification result is listed as “particularly potent”.
